According to patent US20070190070A1, “Methods of using and compositions comprising selective cytokine inhibitory drugs for the treatment and management of disorders of the central nervous system” (priority 2004, published 2007):

Legend:
CBP^+/− mutant mice = details: cited from earlier work
patients with PD = details: cited from earlier work
[1] = tested on: rat mesencephalonic neurons; details: in the presence of the adenylate cyclase activator forskolin; cited from earlier work
[2] = tested on: C57BL/6 mice injected with MPTP; details: cited from earlier work
[3] = Cardiovascular and respiratory function in anesthetized dogs; assay type: in vivo; details: anesthetized Beagle dogs; 400, 800 and 1,200 mg/kg/day via jugular vein infusion; compared to the vehicle control group
Procedure: The effects of 3-(3,4-dimethoxy-phenyl)-3-(1-oxo-1,3-dihydro-isoindol-2-yl)-propionamide on cardiovascular and respiratory function are investigated in anesthetized dogs. Two groups of Beagle dogs (2/sex/group) are used. One group receives three doses of vehicle only and the other receives three ascending doses of 3-(3,4-dimethoxy-phenyl)-3-(1-oxo-1,3-dihydro-isoindol-2-yl)-propionamide (400, 800, and 1,200 mg/kg/day). In all cases, doses of 3-(3,4-dimethoxy-phenyl)-3-(1-oxo-1,3-dihydro-isoindol-2-yl)-propionamide or vehicle are successively administered via infusion through the jugular vein separated by intervals of at least 30 minutes.

## COc1ccc(C2CNC(=O)C2)cc1OC1CCCC1 (centres unmarked) [Rolipram]
CBP^+/− mutant mice
  long-term memory defects: abolished the long-term memory defects
Patients with PD; 3 mg per day, patients with PD already under treatment
  deterioration of the therapeutic action of dopamine against Lisuride: no significant deterioration
Patients with PD; Phase II trials of PD
  dose-limiting side effect: nausea

## CCCCOc1cc(CC2CNC(=O)N2)ccc1OC (centres unmarked) [Ro-20 1724]
[1]
  uptake of dopamine: stimulate uptake of dopamine
[2]
  dopamine depletion in the striatum: reduce dopamine depletion in the striatum
  loss of tyrosine hydroxylase-immunopositive neurons in the substantia nigra: reduce loss of tyrosine hydroxylase-immunopositive neurons

## COc1ccc([C@H]2CNC(=O)[C@H](Cc3cccc(C)c3)C2)cc1OC1CCCC1 [HT0712]
CBP^+/− mutant mice
  long-term memory defects: abolished the long-term memory defects

## COc1ccc(C(CC(N)=O)N2Cc3ccccc3C2=O)cc1OC (centres unmarked) [3-(3,4-Dimethoxy-phenyl)-3-(1-oxo-1,3-dihydro-isoindol-2-yl)-propionamide]
[3]
  cardiovascular and respiratory changes: minimal at all doses

## COCCOc1cc(OCCOC)cc(-c2nc(C)cc3cc(OC)c(OC)cc23)c1 [SDZ-MNS 949]
[1]
  uptake of dopamine: stimulate uptake of dopamine
[2]
  dopamine depletion in the striatum: reduce dopamine depletion in the striatum
  loss of tyrosine hydroxylase-immunopositive neurons in the substantia nigra: reduce loss of tyrosine hydroxylase-immunopositive neurons
